Experimental data taken from patent US20190142737A1, “SUBLINGUAL SPRAY FORMULATION COMPRISING DIHYDROARTEMESININ” (LondonPharma Ltd., priority 2009, published 2019).
Where two headings read alike, the source gives them in different places.

Experiments:
[1] = Impurities of artemether in solvent systems after eight weeks storage (HPLC); type: physicochemical; settings: in contact with water, ethanol, or propellants for aerosol formulations
Excerpt: Tables 1 and 2 show impurities present in Artemether API, and artemether in three solvent systems: 20% ethanol+80% propellant; 50% ethanol+50% propellant; 100% ethanol; and a medium chain triglyceride, in this case, the triglyceride sold under the registered trade mark Miglyol® 810. Miglyol® is a medium chain triglyceride containing saturated C8 and C10 fatty acids, typically between 65-80% of caprylic acid (C8:0) and 20-35% of capric acid (C10:0). The propellant used in these test was 1,1,1,2 tetrafluoroethane, sold under the registered trade mark Zephex® 134a. Similar results were obtained for the propellants butane, Zephex® 227 (1,1,1,2,3,3,3 heptafluoropropane) and for a mixture of butane and propane. […] In all other cases, the impurities are at levels that exceed those permitted under the ICH Harmonised Tripartite Guidelines for Impurities in New Drug Products without specific identification or further toxicological examination.

[2] = humans, cited from earlier work
[3] = animals, cited from earlier work

Stability of artemether (in words) [1]: not stable
Structure (SMILES): CO[C@H]1O[C@@H]2O[C@@]3(C)CC[C@H]4[C@H](C)CC[C@@H]([C@H]1C)[C@@]24OO3 [artemether]
Bioavailability ([2]; intramuscular route): 25% | Bioavailability ([2]; intrarectal route): 35% | Bioavailability ([3]; intramuscular injection): 54% | Bioavailability ([3]; oral administration): 19-35%
